Assay results from patent US20080161223A1, “Spirobornyl-2,4-(1,3-Dioxanes)] And Their Uses As Fragrance Ingredients” (GIVAUDAN SA, priority 2005, published 2008).

Tested on: not listed separately
Assay: Relative odour threshold of constituents compared to the whole stereoisomer mixture
Settings: ratio rac-1b: rac-1d: 1f
Excerpt: b) A 6:2:1 racemic mixture If of diastereomers of (1R*,2S*,2′S*,4R*,5′R*)-, (1R*,2S*,2′S*,4R*,5′S*)- and (1R*,2S*,2′R*,4R*,5′S*)-1,2′,5′,7,7-pentamethylspiro[bicyclo[2.2.1]heptane-2,4′-[1,3]dioxane] was obtained in 38% overall yield following the experimental procedure of Example 1c, starting from the diol mixture 2d obtained from rac-camphor via 2-(1-methylallyl)-1,7,7-trimethylbicyclo[2.2.1]heptan-2-ol (5a), applying the methodology of Kostova et al (Helv. Chim. Acta 1999, 82, 1385), i.e. route III. The epimeric intermediate enols and diols were not separated. (1R*,2S*,2′S*,4R*,5′S*)- and (1R*,2S*,2′S*,4R*,5′R*)- enatiomeric pairs are the strongest constituents of the mixture. Their relative odour threshold, compared to the whole stereoisomer mixture, were 1:50:4 (rac-1b: rac-1d: 1f).

| SMILES | relative odour threshold |
| --- | --- |
| CC1OCC(C)C2(CC3CCC2(C)C3(C)C)O1 (racemic) [Compound 1f, (1RS,2SR,2′RS/SR,4RS,5′RS/SR)-1,2′,5′,7,7-Pentamethylspiro[bicyclo[2.2.1]heptane-2,4′-[1,3]dioxane]] | 4 |
| CC1OCC(C)C2(CC3CCC2(C)C3(C)C)O1 (racemic) [rac-1b] | 1 |
| CC1OCC(C)C2(CC3CCC2(C)C3(C)C)O1 (racemic) [rac-1d] | 50 |

Tested on: not listed separately
Assay: Odour description (olfactory evaluation of the compound)
Settings: stated within the odour description

| SMILES | Odour strength compared to another compound |
| --- | --- |
| C[C@@H]1OC[C@H](C)[C@]2(C[C@H]3CC[C@]2(C)C3(C)C)O1 (single isomer, unassigned) [Compound 1c] | weaker than 1b |
| CC[C@@H]1OC[C@H](C)[C@]2(C[C@H]3CC[C@]2(C)C3(C)C)O1 [Compound 1h, (1R,2S,2′R,4R,5′S)-2′-Ethyl-1,5′,7,7-tetramethylspiro[bicyclo[2.2.1]heptane-2,4′-[1,3]dioxane]] | weaker than compound 1g |
| CC(C)[C@@H]1OC[C@H](C)[C@]2(C[C@H]3CC[C@]2(C)C3(C)C)O1 [Compound 1j, (1R,2S,2′R,4R,5′S)-2′-Isopropyl-1,5′,7,7-tetramethylspiro[bicyclo[2.2.1]heptane-2,4′-[1,3]dioxane]] | weaker than compound 1i |

Tested on: panel of trained evaluators
Assay: Determination of GC-odour threshold concentration
Settings: gas chromatograph with sniff port; racemic mixture of compounds; group of 4 panelists; identical conditions
Description: Determination of GC-odour threshold concentration
According to standard procedures known to the person skilled in the art, threshold concentrations for volatile perfumery compounds are determined on a gas chromatograph equipped with a sniff port by a panel of trained evaluators. The lowest concentration smelled by each panellist is recorded as the individual threshold concentration expressed in ng (absolute amount of compound delivered at the sniff port).
Under identical conditions the odour threshold concentration for racemic mixture of compounds A, B and C respectively was measured and compared by a group of 4 panelists.

| SMILES | odour threshold concentration geometric mean [ng] |
| --- | --- |
| CC1OCCC2(CC3CCC2(C)C3(C)C)O1 (racemic) [A] | 22 |
| CC1CC2(CC3CCC2(C)C3(C)C)OC(C)O1 (racemic) [B] | 68 |
| CC1OCC(C)C2(CC3CCC2(C)C3(C)C)O1 (stereo not drawn) [C] | 3 |
